Laboratory results: article PMC3469748 (Molecular and cellular biochemistry, 2012)

Columns and labels:
[1] = molecular target: T1, thioredoxin reductase 1 (TrxR) (Rattus norvegicus, UniProt O89049); assay: DTNB reduction assay
T1 sequence (O89049 1-499): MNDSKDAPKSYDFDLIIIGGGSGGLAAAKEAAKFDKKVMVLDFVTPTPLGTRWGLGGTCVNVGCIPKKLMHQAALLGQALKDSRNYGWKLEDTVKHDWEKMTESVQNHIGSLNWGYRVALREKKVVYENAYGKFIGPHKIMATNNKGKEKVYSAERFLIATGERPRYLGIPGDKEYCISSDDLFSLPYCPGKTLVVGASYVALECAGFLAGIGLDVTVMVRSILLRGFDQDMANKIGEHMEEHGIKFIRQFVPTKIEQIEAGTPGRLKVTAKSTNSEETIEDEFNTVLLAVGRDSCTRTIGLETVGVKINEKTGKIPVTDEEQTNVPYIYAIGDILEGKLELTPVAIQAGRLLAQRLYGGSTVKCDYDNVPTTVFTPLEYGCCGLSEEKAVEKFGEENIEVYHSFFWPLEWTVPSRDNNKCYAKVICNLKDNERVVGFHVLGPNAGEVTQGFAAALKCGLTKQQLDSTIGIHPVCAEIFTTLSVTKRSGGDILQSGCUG

[2] = molecular target: T1, thioredoxin reductase 1 (TrxR); assay: biochemical

Row | SMILES | IC50 [1] [µM] | IC50 [2] [µM]
1 | CNC(=O)N(NS(C)(=O)=O)S(C)(=O)=O [101MDCE] | 5.37 ± 0.58 | –
2 | CNC(=O)N(N(CCCl)S(C)(=O)=O)S(C)(=O)=O [Laromustine, 1,2-bis(methylsulfonyl)-1-(2-chloroethyl)-2-[(methylamino)carbonyl]hydrazine] | 4.65 ± 0.37 | –
3 | O=NN(CCCl)C(=O)NCCCl [Carmustine, 1,3-bis(2-chloroethyl)-1-nitrosourea] | – | 7.63 ± 0.72
